Laboratory results taken from patent publication US20240091254A1, “WNT AGONISTS FOR PREVENTION OF CANCER” (ACADEMISH MEDISCH CENTRUM, priority 2021, published 2024).

Tests used:
[1] = system: Wnt pathway (TOP-GFP reporter); assay: TOP-GFP Wnt reporter assay in MEFs; assay type: cell-based, mouse
Description: Mouse embryonic fibroblasts (MEFs, ATCC) and HEK293T (ATCC) cells were both cultured in Dulbecco's Modified Eagle's Medium (DMEM) supplemented with 10% fetal calf serum (FCS), 1% Glutamine, and antibiotic penicillin and streptomycin. Cells were maintained at 37° C. in humidified air containing 5% CO2. All cell lines were routinely checked for mycoplasm contamination, no cell line authentication was performed.
Mouse embryonic fibroblasts (MEFs) were cultured in Dulbecco's Modified Eagle's Medium (DMEM) supplemented with 10% fetal calf serum (FCS), 1% Glutamine, and antibiotic penicillin and streptomycin. MEFs were stably transduced with Wnt reporter TOP-GFP (Addgene plasmid #35491). For TOP-GFP assays, cells were stimulated with Wnt3A conditioned medium for 24 hours after which GFP positivity was measured by flow cytometry.

WT organoids = assay: Murine WT intestinal organoids incubated with conditioned medium or recombinant Wnt antagonists (expansion, clonogenicity); assay type: cell-based, mouse; conditions: for Expansion and clonogenicity of WT organoids: overexpression CM or recombinant protein: NOTUM 2 μg/mL, WIF1 5 μg/mL, DKK2 1 μg/mL
Description: Murine intestinal crypts were isolated from Lgr5-EGFP-IRES-Cre^ERT2, Lgr5-EGFP-IRES-Cre^ERT2;Ape/or Villin-Cre^ERT2;Apc^fl/fl mice as described by Sato et al.^35. In short, intestines were removed from the mouse and washed thoroughly with ice-cold PBS. Next, the intestine was opened longitudinally and the villi were gently scraped off by a glass cover slide. The intestine was cut into pieces of 5×5 mm and incubated in 2 mM EDTA solution for 30 min. at 4° C. After removal of the EDTA, the crypts were resuspended in ice-cold 1% FCS in PBS by vigorously shaking the tube and passing the supernatant through a 70 µm strainer. Isolated crypts were resuspended in Matrigel® (Corning) and seeded in pre-heated 24-well plates, supplemented with basal organoid medium consisting of advanced DMEM/F12 medium (Gibco) containing 100× N2 and 50× B27 supplements, 100× Glutamax, 5 mM HEPES, 1 mM N-acetyl-L-cysteine (Sigma), and 100× antibiotic/antimycotic (all Gibco). The basal organoid medium was freshly supplemented with the following growth factors: mouse EGF 50 ng/ml (TEBU-BIO), R-spondin (conditioned medium), Noggin (conditioned medium). The first two days after crypt isolation CHIR99021 (Axon Medchem) and ROCK inhibitor (Sigma) was added to the medium. Ctnnb1^S organoids expressing a constitutive active variant of β-catenin were generated as described by Adam et al.^36. For in vitro recombination of loxP flanked alleles, 1 μM 40H-Tamoxifen (Sigma) was added to the medium. Recombination of the Apc gene was validated by digital droplet PCR (Bio-Rad) using EvaGreen® Supermix (Bio-Rad). Lgr5-EGFP-IRES-Cre^ERT2 organoids, referred to as wild type (WT) organoids, were stably transduced with a red fluorescent mCherry construct (LeGO-C2, Addgene #27399). The in vitro recombined Lgr5-EGFP-IRES-Cre^ERT2;Apc^fl/fl, referred to as Apc^−/−, were stably transduced with a green fluorescent Venus construct (LeGO-V2, Addgene #27340). During competition assays, organoids were plated in equal numbers in 24-well plates and full wells were scanned over time by the EVOS FL Cell Imaging System (Thermo Scientific). Conditioned medium (CM) was taken from 2-3 day old WT or Apc^−/− organoid cultures and freshly supplemented with growth factors R-spondin, Noggin and mEGF. During the competition assays the medium (normal and conditioned) was replaced every other day to minimize effects of medium depletion. To assess the effect of medium depletion, CM was 10× concentrated using 10 kDa Amicon® centrifugal filters (Millipore) and added to fresh ENR medium as 1:10. […] Recombinant proteins NOTUM (2 μg/mL, R&D, 9150-NO-050), WIF1 (5 μg/mL, R&D, 135-WF-050) and DKK2 (1 μg/mL, R&D, 2435-DKB-010) were freshly added to the culture medium, medium was refreshed every other day.

Cc1c[nH]c(-c2cnc(NCCNc3ccc(C#N)cn3)nc2-c2ccc(Cl)cc2Cl)n1 [CHIR99021]
Effect on Apc-/- CM reduction of Wnt3a mediated Wnt activation (TOP-GFP) ([1]; MEFs, TOP-GFP reporter, 2.5 μM CHIR99021): completely abrogated this effect
Resistance to Apc-/- CM induced reduction in proliferation and clonogenicity (WT organoids; WT organoids, Apc-/- CM, 2.5 μM CHIR): resistant to the Apc^−/− CM induced reduction in proliferation and clonogenicity

O=C([O-])[O-].[Li+].[Li+] [Li2CO3, lithium carbonate]
Wnt signalling activation in Wnt reporter assay, Li2CO3 compared with LiCl ([1]; comparable concentrations (5 or 10 mM)): activated the same amount of Wnt signalling

Cn1c(=O)c2c(ncn2C)n(C)c1=O [caffeine]
Rescue of Notum-mediated inhibition of Wnt signalling in Wnt reporter assay ([1]; 200 μM caffeine): can rescue inhibition of Wnt singalling in vitro
Clonogenic capacity of wild type intestinal organoids with Apc-mutant CM (WT organoids; Apc-mutant CM containing Notum, 200 μM caffeine): rescue in clonogenic capacity
Clonogenic capacity of organoids with CM of Apc-mutant, Notum KO organoids (WT organoids; Apc-mutant Notum KO CM, 200 μM caffeine): no effect

Wif1: Wnt antagonist Wnt inhibitory factor 1, as overexpression CM or recombinant protein
Expansion and clonogenicity of WT organoids (WT organoids): ability to reduce expansion and clonogenicity of WT organoids

B1: Notum: Wnt antagonist Palmitoleoyl-Protein Carboxylesterase, as overexpression CM or recombinant protein (protein, UniProt Q6P988 20-496, looked up)
Palmitoleoyl-protein …: SEGRKTWRRRGQQPPPPPRTEAAPAAGQPVESFPLDFTAVEGNMDSFMAQVKSLAQSLYPCSAQQLNEDLRLHLLLNTSVTCNDGSPAGYYLKESRGSRRWLLFLEGGWYCFNRENCDSRYDTMRRLMSSRDWPRTRTGTGILSSQPEENPYWWNANMVFIPYCSSDVWSGASSKSEKNEYAFMGALIIQEVVRELLGRGLSGAKVLLLAGSSAGGTGVLLNVDRVAEQLEKLGYPAIQVRGLADSGWFLDNKQYRHTDCVDTITCAPTEAIRRGIRYWNGVVPERCRRQFQEGEEWNCFFGYKVYPTLRCPVFVVQWLFDEAQLTVDNVHLTGQPVQEGLRLYIQNLGRELRHTLKDVPASFAPACLSHEIIIRSHWTDVQVKGTSLPRALHCWDRSLHDSHKASKTPLKGCPVHLVDSCPWPHCNPSCPTVRDQFTGQEMNVAQFLMHMGFDMQTVAQPQGLEPSELLGMLSNGS
Expansion and clonogenicity of WT organoids (WT organoids): ability to reduce expansion and clonogenicity of WT organoids

B2: Dkk2: Wnt antagonist Dickkopf-related protein 2, as overexpression CM or recombinant protein (protein, UniProt Q9UBU2 34-259, looked up)
Dickkopf-related protein 2: KLNSIKSSLGGETPGQAANRSAGMYQGLAFGGSKKGKNLGQAYPCSSDKECEVGRYCHSPHQGSSACMVCRRKKKRCHRDGMCCPSTRCNNGICIPVTESILTPHIPALDGTRHRDRNHGHYSNHDLGWQNLGRPHTKMSHIKGHEGDPCLRSSDCIEGFCCARHFWTKICKPVLHQGEVCTKQRKKGSHGLEIFQRCDCAKGLSCKVWKDATYSSKARLHVCQKI
Expansion and clonogenicity of WT organoids (WT organoids): ability to reduce expansion and clonogenicity of WT organoids
